Values joined by “and” are separate entries in the source; they are usually repeats but may differ in a detail not shown here. Identical values can stand only once. Like-named read-outs stand apart in the source and are kept apart here. One block for each compound: values may come before it.
Columns and labels:
Hh signaling = assay: luciferase-based reporter assay of Hh signaling in C3H10T1/2 cells; assay type: cell-based; conditions: for inhibition of Hh protein-activated versus agonist-activated cells: Hh protein (10 nM) or Hh-Ag 1.2 (200 nM); for effect on pathway activation by the agonist: cells activated by Hh-Ag 1.2 (200 nM)
[1] = target: murine Smo W539L (Smo^act) (Mus musculus, UniProt P56726, W539L); assay: filtration membrane-binding assay, Smo^act-containing membranes
murine Smo W539L (Smo^act), sequence (P56726 33-793 W539L): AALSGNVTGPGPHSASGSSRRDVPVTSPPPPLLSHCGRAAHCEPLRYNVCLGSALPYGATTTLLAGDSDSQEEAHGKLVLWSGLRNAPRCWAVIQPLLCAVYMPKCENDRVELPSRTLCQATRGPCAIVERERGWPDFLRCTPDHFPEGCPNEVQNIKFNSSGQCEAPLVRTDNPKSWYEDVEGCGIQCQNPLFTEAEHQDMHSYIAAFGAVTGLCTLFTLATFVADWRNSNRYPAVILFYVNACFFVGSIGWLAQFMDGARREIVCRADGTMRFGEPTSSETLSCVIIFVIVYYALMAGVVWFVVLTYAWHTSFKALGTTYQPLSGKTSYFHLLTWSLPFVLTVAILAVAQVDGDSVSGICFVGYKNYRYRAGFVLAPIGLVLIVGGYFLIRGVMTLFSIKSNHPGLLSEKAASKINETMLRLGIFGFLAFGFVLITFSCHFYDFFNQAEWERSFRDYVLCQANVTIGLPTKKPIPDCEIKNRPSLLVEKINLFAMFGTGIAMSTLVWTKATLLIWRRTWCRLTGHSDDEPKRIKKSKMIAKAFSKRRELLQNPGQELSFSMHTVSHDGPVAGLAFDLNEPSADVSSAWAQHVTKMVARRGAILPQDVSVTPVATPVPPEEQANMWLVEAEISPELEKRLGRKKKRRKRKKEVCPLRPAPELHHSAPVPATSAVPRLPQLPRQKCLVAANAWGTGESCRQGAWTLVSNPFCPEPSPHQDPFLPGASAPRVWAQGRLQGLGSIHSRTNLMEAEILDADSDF

murine Smo = murine Smo (Mus musculus, UniProt P56726); assay: filtration membrane-binding assay, Smo-containing membranes from 293T cells
murine Smo, sequence (P56726 33-793): as the sequence (P56726 33-793 W539L) above, with L507W counted along it

Smo^act-expressing cells = conditions: ref [11],[17]; cited from earlier work
HA-tagged Smo = HA-tagged Smo (Mus musculus, UniProt P56726); assay: whole cell/immunocomplex binding assay, Smo-transfected 293T cells; conditions: unlabeled competitor at 5 μM, 37°C, 2 hours
HA-tagged Smo, sequence (P56726 33-793): as the sequence (P56726 33-793 W539L) above, with L507W counted along it

[2] = Smo^act, competition with [3H]-Hh-Ag 1.5 (0.4 nM)
[3] = Smo^wt, competition with [3H]-Hh-Ag 1.5 (0.4 nM)

SMILES: C=C[C@@]1(C)CC(=O)[C@]2(O)[C@@]3(C)[C@@H](O)CCC(C)(C)[C@@H]3[C@H](O)[C@H](OC(C)=O)[C@@]2(C)O1 [forskolin]
inhibition of Hh protein-activated versus agonist-activated cells (Hh signaling): identical inhibition curves | effect on pathway activation by the agonist (Hh signaling): inhibitory

Ki on Smo^act- compared to Smo^wt-containing membranes [1]: seven-fold higher | Ki [1, 2]: 309 nM | Ki (murine Smo; [3]): 44 nM | competition of [3H]-Hh-Ag 1.5 (2 nM) binding (murine Smo; competitor at 10 μM): significantly compete | competition of [3H]-Hh-Ag 1.5 (5 nM) binding (HA-tagged Smo): significantly compete
SMILES: COc1cccc(CN(C(=O)CC(C)(C)C)[C@H]2C[C@@H](C(=O)N3CCNCC3)N(Cc3ccc4c(c3)OCO4)C2)c1 [Cur61414]
inhibition of Hh protein-activated versus agonist-activated cells (Hh signaling): differ in their sensitivity | effect on pathway activation by the agonist (Hh signaling): inhibitory | potency on Smo^act-expressing cells (Smo^act-expressing cells): decreased potency

SMILES: C[C@H]1CC[C@]2(NC1)O[C@H]1C[C@H]3[C@@H]4CC[C@H]5C[C@@H](O)CC[C@]5(C)[C@H]4CC[C@]3(C)[C@H]1[C@@H]2C [tomatadine]
Hh signaling activity (Hh signaling; described in words): inactive

SMILES: CC1=C2C(=O)[C@H]3[C@@H](CC=C4C[C@@H](O)CC[C@@]43C)[C@@H]2CC[C@]12O[C@@H]1C[C@H](C)CN[C@H]1[C@H]2C [jervine]
inhibition of Hh protein-activated versus agonist-activated cells (Hh signaling): Identical results

SMILES: CC1=C2C[C@H]3[C@@H](CC=C4CC(=O)CC[C@@]43C)[C@@H]2CC[C@]12O[C@@H]1C[C@H](C)CN(CCNC(=O)CCCCCNC(=O)CCc3ccccc3)[C@H]1[C@H]2C [KAAD-cyclopamine]
Ki [1]: 38.3 nM | Ki on Smo^act- compared to Smo^wt-containing membranes [1]: seven-fold higher | inhibition of Hh protein-activated versus agonist-activated cells (Hh signaling): Identical results | Ki (murine Smo): 5.8 nM | competition of [3H]-Hh-Ag 1.5 (2 nM) binding (murine Smo): significantly compete | potency on Smo^act-expressing cells (Smo^act-expressing cells): decreased potency | competition of [3H]-Hh-Ag 1.5 (5 nM) binding (HA-tagged Smo): significantly compete

SMILES: CC1=C2C[C@H]3[C@@H](CC=C4C[C@@H](O)CC[C@@]43C)[C@@H]2CC[C@]12O[C@@H]1C[C@H](C)CN[C@H]1[C@H]2C [cyclopamine]
inhibition of Hh protein-activated versus agonist-activated cells (Hh signaling): differ in their sensitivity

Ki [1, 2]: ~0.5 nM | affinity for Smo^act ([1]; kinetic and saturation binding assay, data not shown): affinity identical to that of Smo^wt | EC50 (Hh signaling; cell-based reporter assay): ~1 nM and 1 nM | Ki (murine Smo; [3]): 0.52 nM and ~0.5 nM | Kd (murine Smo; saturation binding, approximately 45 hours at 37°C, one-site model): 0.37 nM | competition of [3H]-Hh-Ag 1.5 (2 nM) binding (murine Smo; unlabeled competitor at 2 μM): completely competed out
SMILES: CNC1CCC(N(Cc2cccc(-c3ccncc3)c2)C(=O)c2sc3c(F)ccc(F)c3c2Cl)CC1 (stereo not shown) [Hh-Ag 1.5]
increase of potency by chemical modification (Hh signaling; relative to Hh-Ag 1.1): over 1000 fold | competition of [3H]-Hh-Ag 1.5 (5 nM) binding (HA-tagged Smo): complete absence of counts in the immunocomplex
